Measured values reported in ChEMBL document CHEMBL4610120, “New Broad-Spectrum Antibiotics Containing a Pyrrolobenzodiazepine Ring with Activity against Multidrug-Resistant Gram-Negative Bacteria” (J Med Chem, 2020).
In brackets after ≈: the same amount, converted by molar mass.

Assays:
[1] = tested on: Klebsiella pneumoniae; assay: Antibacterial activity against multidrug-resistant Klebsiella pneumoniae NCTC 13368 measured after 10 passages by microdilution broth method; type: functional
[2] = tested on: Escherichia coli; assay: Antimicrobial activity against multidrug-resistant Escherichia coli NCTC 12923 assessed as mutation frequency at 4 times MIC measured after 48 hrs; type: functional
[3] = tested on: Acinetobacter baumannii; assay: Antimicrobial activity against Acinetobacter baumannii ATCC 17978 assessed as mutation frequency at 4 times MIC measured after 48 hrs; type: functional
[4] = target: T1, Protein RecA (Escherichia coli K-12) (UniProt P0A7G6); assay: Induction of Escherichia coli K12 MG1655 recA promotor measured at 30 mins interval for 20 hrs by fluorescence assay relative to control; conditions: Escherichia coli str. K-12 substr. MG1655
T1 sequence (whole entry): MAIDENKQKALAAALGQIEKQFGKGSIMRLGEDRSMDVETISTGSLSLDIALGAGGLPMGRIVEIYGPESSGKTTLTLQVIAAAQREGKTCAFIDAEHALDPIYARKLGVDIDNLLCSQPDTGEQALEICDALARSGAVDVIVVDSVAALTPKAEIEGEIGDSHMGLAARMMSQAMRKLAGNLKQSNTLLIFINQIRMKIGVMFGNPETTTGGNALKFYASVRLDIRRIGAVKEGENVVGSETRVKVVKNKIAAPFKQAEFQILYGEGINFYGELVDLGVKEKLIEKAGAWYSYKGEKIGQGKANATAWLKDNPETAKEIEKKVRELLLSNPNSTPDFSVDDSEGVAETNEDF

[5] = target: T2, LexA repressor (Escherichia coli) (UniProt P0A7C2); assay: Induction of Escherichia coli K12 MG1655 lexA promotor measured at 30 mins interval for 20 hrs by fluorescence assay relative to control; conditions: Escherichia coli str. K-12 substr. MG1655
T2 sequence (whole entry): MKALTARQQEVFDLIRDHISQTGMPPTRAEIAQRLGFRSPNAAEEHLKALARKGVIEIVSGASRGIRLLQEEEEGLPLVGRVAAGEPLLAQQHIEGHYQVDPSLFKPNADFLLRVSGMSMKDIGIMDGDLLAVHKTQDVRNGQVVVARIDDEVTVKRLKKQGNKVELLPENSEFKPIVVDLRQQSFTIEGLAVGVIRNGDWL

[6] = target: T3, DNA repair protein RecN (Escherichia coli) (UniProt P05824); assay: Induction of Escherichia coli K12 MG1655 recN promotor measured at 30 mins interval for 20 hrs by fluorescence assay relative to control; conditions: Escherichia coli str. K-12 substr. MG1655
T3 sequence (whole entry): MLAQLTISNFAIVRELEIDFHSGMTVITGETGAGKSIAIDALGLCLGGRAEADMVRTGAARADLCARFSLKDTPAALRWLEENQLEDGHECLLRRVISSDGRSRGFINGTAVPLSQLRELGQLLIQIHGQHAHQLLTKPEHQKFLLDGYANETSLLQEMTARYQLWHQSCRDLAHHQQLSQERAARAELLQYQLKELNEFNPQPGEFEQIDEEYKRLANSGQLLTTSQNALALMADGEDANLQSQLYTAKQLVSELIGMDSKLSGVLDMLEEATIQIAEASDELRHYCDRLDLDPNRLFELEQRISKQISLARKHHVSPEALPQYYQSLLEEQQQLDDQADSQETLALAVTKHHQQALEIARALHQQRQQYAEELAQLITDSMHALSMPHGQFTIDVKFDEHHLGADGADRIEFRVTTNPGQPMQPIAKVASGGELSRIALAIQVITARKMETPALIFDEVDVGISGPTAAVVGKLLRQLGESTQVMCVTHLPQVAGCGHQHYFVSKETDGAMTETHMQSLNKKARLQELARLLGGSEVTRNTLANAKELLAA

[7] = target: T4, Cell division inhibitor SulA (Escherichia coli K-12) (UniProt P0AFZ5); assay: Induction of Escherichia coli K12 MG1655 sulA promotor measured at 30 mins interval for 20 hrs by fluorescence assay relative to control; conditions: Escherichia coli str. K-12 substr. MG1655
T4 sequence (whole entry): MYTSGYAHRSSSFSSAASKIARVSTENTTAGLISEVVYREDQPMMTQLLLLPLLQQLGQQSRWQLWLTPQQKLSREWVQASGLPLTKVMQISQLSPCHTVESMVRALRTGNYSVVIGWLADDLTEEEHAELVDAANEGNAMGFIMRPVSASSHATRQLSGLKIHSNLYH

[8] = tested on: Klebsiella pneumoniae; assay: Antimicrobial activity against Klebsiella pneumoniae M6 assessed as mutation frequency at 4 times MIC measured after 48 hrs; type: functional
[9] = tested on: Acinetobacter baumannii; assay: Antimicrobial activity against Acinetobacter baumannii ATCC 17978 by microdilution broth method; type: functional
[10] = tested on: Acinetobacter baumannii; assay: Antimicrobial activity against multidrug-resistant Acinetobacter baumannii AYE by microdilution broth method; type: functional
[11] = tested on: Klebsiella pneumoniae; assay: Antimicrobial activity against Klebsiella pneumoniae M6 by microdilution broth method; type: functional
[12] = tested on: Klebsiella pneumoniae; assay: Antimicrobial activity against multidrug-resistant Klebsiella pneumoniae NCTC 13368 by microdilution broth method; type: functional
[13] = tested on: Pseudomonas aeruginosa; assay: Antimicrobial activity against Pseudomonas aeruginosa PAO1 by microdilution broth method; type: functional
[14] = tested on: Pseudomonas aeruginosa; assay: Antimicrobial activity against multidrug-resistant Pseudomonas aeruginosa NCTC 13437 by microdilution broth method; type: functional
[15] = tested on: Enterococcus faecium; assay: Antibacterial activity against vancomycin resistant Enterococcus faecium NCTC 12204 by microdilution broth method; type: functional
[16] = tested on: Enterococcus faecalis; assay: Antibacterial activity against vancomycin resistant Enterococcus faecalis NCTC 12201 by microdilution broth method; type: functional
[17] = tested on: Enterococcus faecalis; assay: Antibacterial activity against vancomycin sensitive Enterococcus faecalis NCTC 775 by microdilution broth method; type: functional
[18] = tested on: Staphylococcus aureus; assay: Antibacterial activity against methicillin resistant Staphylococcus aureus NCTC 13616 by microdilution broth method; type: functional
[19] = tested on: Staphylococcus aureus; assay: Antibacterial activity against methicillin resistant Staphylococcus aureus NCTC 13277 by microdilution broth method; type: functional
[20] = tested on: Staphylococcus aureus; assay: Antibacterial activity against methicillin sensitive Staphylococcus aureus NCTC 6571 by microdilution broth method; type: functional
[21] = tested on: DNA; assay: Stabilization of 5'-FAM-TAT-ATA-TAG-ATA-TTT-TTT-TAT-CTA-TAT-ATA-3'-TAMRA DNA (unknown origin) assessed as reduction in change in melting temperature at 1:1 to 5:1 ligand to DNA ratio measured after 3 hrs by FRET-based assay relative to control; type: ADME, nucleic-acid assay
[22] = tested on: DNA; assay: Stabilization of 5'-FAM-TAT-AGA-TAT-AGA-TAT-TTT-ATA-TCT-ATA-TCT-ATA-3'-TAMRA DNA (unknown origin) assessed as reduction in change in melting temperature at 1:1 to 5:1 ligand to DNA ratio measured after 3 hrs by FRET-based assay relative to control; type: ADME, nucleic-acid assay
[23] = Cytotoxicity against human WI38 cells assessed as cell viability at 20 uM measured after 24 hrs by MTT assay relative to control; type: cell-based, WI-38; conditions: read-out: Activity
[24] = Selectivity ratio of cytotoxicity against human WI38 cells to MIC for Acinetobacter baumannii ATCC 17978; type: toxicity, cell-based
[25] = Selectivity ratio of cytotoxicity against human WI38 cells to MIC for multidrug-resistant Acinetobacter baumannii AYE; type: toxicity, cell-based
[26] = Selectivity ratio of cytotoxicity against human WI38 cells to MIC for Klebsiella pneumoniae M6; type: toxicity, cell-based
[27] = Selectivity ratio of cytotoxicity against human WI38 cells to MIC for multidrug-resistant Klebsiella pneumoniae NCTC 13368; type: toxicity, cell-based
[28] = Selectivity ratio of cytotoxicity against human WI38 cells to MIC for Pseudomonas aeruginosa PAO1; type: toxicity, cell-based
[29] = Selectivity ratio of cytotoxicity against human WI38 cells to MIC for multidrug-resistant Pseudomonas aeruginosa NCTC 13437; type: toxicity, cell-based
[30] = Selectivity ratio of cytotoxicity against human WI38 cells to MIC for vancomycin resistant Enterococcus faecium NCTC 12204; type: toxicity, cell-based
[31] = Selectivity ratio of cytotoxicity against human WI38 cells to MIC for vancomycin resistant Enterococcus faecalis NCTC 12201; type: toxicity, cell-based
[32] = Selectivity ratio of cytotoxicity against human WI38 cells to MIC for vancomycin sensitive Enterococcus faecalis NCTC 775; type: toxicity, cell-based
[33] = Selectivity ratio of cytotoxicity against human WI38 cells to MIC for methicillin resistant Staphylococcus aureus NCTC 13616; type: toxicity, cell-based
[34] = Selectivity ratio of cytotoxicity against human WI38 cells to MIC for methicillin resistant Staphylococcus aureus NCTC 13277; type: toxicity, cell-based
[35] = Selectivity ratio of cytotoxicity against human WI38 cells to MIC for methicillin sensitive Staphylococcus aureus NCTC 6571; type: toxicity, cell-based

Molecule	MIC [9] [µg/mL]	MIC [10] [µg/mL]	MIC [11] [µg/mL]	MIC [12] [µg/mL]	MIC [13] [µg/mL]	MIC [14] [µg/mL]	MIC [15] [µg/mL]	MIC [16] [µg/mL]	MIC [17] [µg/mL]	MIC [18] [µg/mL]	MIC [19] [µg/mL]	MIC [20] [µg/mL]	fold change (FC) [21]	fold change (FC) [22]	viability at 24 h, 20 µM [23] [%]	selectivity ratio [24]	selectivity ratio [25]	selectivity ratio [26]	selectivity ratio [27]	selectivity ratio [28]	also measured
COLISTIN	–	–	–	–	–	–	–	–	–	–	–	–	–	–	–	–	–	–	–	–	MIC [1]: 32 µg/mL
O=C(O)c1cn(C2CC2)c2cc(N3CCNCC3)c(F)cc2c1=O [CIPROFLOXACIN]	–	–	–	–	–	–	–	–	–	–	–	–	–	–	–	–	–	–	–	–	Activity [2]: 4.4 ×10⁻⁷ No_unit; Activity [3]: 8.4 ×10⁻⁷ No_unit; fold change (FC) [4]: 20 to 35; fold change (FC) [5]: 5 to 13; fold change (FC) [6]: 14 to 32; fold change (FC) [7]: 17 to 41; Activity [8]: 8.9 ×10⁻⁷ No_unit
COc1cc2c(cc1OCCCC(=O)Nc1cc(C(=O)Nc3ccc4oc(C(=O)N(C)C)cc4c3)n(C)c1)N=C[C@@H]1CCCN1C2=O	4 (≈ 6.24 µM)	4 (≈ 6.24 µM)	0.5 (≈ 0.78 µM)	16 (≈ 25 µM)	128 (≈ 200 µM)	64 (≈ 99.9 µM)	≤ 0.125	0.5 (≈ 0.78 µM)	≤ 0.125	≤ 0.125	≤ 0.125	≤ 0.125	3 to 4	3 to 4	> 85	10	10	10	10	10	selectivity ratio [29]: 10; selectivity ratio [30]: 100; selectivity ratio [31]: 100; selectivity ratio [32]: 100; selectivity ratio [33]: 100; selectivity ratio [34]: 100; selectivity ratio [35]: 100
CCN(CC)C(=O)c1cc(-c2ccc(NC(=O)c3cc(NC(=O)CCCOc4cc5c(cc4OC)C(=O)N4CCC[C@H]4C=N5)cn3C)cc2)cn1C	64 (≈ 90.4 µM)	32 (≈ 45.2 µM)	> 128	> 128	> 128	> 128	0.25 (≈ 0.353 µM)	0.25 to 0.5 (≈ 0.353 to 0.706 µM)	0.5 (≈ 0.706 µM)	1 (≈ 1.41 µM)	1 (≈ 1.41 µM)	0.25 to 0.5 (≈ 0.353 to 0.706 µM)	3 to 4	3 to 4	> 85	10	10	10	10	10	selectivity ratio [29]: 10; selectivity ratio [30]: 100; selectivity ratio [31]: 100; selectivity ratio [32]: 100; selectivity ratio [33]: 100; selectivity ratio [34]: 100; selectivity ratio [35]: 100
